Data: patent US12655106B2 (Eikonizo Therapeutics, Inc., priority 2021, dated 2026)

What was measured:
Full length Human HDAC6 = molecular target: T1, Full length Human HDAC6 (Homo sapiens, UniProt Q9UBN7); test: Caliper endpoint assay for HDAC enzymatic activity (HDAC6); type: biochemical; settings: for IC50: in vitro enzymatic, Caliper endpoint assay, 30 min pre-incubation, 1 μM substrate peptide; for Selectivity (6 v 8): ratio of HDAC8 IC50/HDAC6 IC50
T1 construct: Full length Human HDAC6; FLAG (C); host or cells: baculovirus expression system
T1 sequence (Q9UBN7 1-1215): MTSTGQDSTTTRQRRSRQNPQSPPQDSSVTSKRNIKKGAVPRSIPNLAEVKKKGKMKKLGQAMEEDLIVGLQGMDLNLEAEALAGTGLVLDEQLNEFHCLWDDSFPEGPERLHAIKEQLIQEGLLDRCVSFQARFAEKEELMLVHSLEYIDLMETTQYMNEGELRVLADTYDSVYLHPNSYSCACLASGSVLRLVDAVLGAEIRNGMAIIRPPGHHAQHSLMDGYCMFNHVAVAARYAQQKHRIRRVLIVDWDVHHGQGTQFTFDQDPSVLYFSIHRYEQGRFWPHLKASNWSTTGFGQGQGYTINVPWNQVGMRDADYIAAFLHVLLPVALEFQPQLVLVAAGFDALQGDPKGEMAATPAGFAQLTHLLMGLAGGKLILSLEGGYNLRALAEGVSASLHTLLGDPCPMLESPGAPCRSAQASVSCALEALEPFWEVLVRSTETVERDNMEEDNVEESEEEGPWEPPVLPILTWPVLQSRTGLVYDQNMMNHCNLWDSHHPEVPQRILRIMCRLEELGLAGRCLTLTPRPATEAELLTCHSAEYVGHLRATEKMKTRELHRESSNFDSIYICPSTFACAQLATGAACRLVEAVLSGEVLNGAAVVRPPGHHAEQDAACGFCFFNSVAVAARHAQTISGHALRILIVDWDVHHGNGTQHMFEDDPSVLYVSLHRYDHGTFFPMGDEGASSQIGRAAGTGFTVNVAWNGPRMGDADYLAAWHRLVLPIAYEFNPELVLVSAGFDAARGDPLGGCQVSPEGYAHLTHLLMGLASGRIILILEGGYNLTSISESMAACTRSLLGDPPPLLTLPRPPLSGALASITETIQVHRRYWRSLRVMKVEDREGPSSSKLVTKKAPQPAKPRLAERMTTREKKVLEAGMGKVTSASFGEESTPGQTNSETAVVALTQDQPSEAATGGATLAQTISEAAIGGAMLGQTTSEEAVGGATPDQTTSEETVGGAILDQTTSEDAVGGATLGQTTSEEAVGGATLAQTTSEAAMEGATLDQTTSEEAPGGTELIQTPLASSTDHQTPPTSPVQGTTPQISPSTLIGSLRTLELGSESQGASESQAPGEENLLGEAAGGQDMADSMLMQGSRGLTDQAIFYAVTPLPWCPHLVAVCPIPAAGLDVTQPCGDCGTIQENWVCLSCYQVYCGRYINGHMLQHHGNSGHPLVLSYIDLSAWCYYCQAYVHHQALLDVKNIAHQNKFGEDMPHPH

Full length Human HDAC8 = molecular target: T2, Full length Human HDAC8 (Homo sapiens, UniProt Q9BY41); test: Caliper endpoint assay for HDAC enzymatic activity (HDAC8); type: biochemical; settings: in vitro enzymatic, 30 min pre-incubation, 1 μM substrate peptide
T2 construct: Full length Human HDAC8; HIS (N); host or cells: baculovirus expression system
T2 sequence (Q9BY41 1-377): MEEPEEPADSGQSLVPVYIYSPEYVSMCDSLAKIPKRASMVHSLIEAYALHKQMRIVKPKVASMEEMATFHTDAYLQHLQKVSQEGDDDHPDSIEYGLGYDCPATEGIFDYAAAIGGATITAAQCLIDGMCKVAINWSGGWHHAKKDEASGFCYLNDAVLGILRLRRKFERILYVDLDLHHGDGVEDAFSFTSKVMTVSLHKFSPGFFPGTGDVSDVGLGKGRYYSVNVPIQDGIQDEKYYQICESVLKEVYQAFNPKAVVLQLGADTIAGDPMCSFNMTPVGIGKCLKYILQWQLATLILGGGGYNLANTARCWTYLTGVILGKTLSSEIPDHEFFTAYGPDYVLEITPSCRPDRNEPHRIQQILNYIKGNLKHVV

SMILES | IC50 (Full length Human HDAC6) | Selectivity (6 v 8) (Full length Human HDAC6) | IC50 (Full length Human HDAC8)
CN1CC[C@@]2(CC[C@H](N3CCc4cc(C(=O)NO)cc(F)c4C3)C2)C1 (single isomer, unassigned) [Compound 405] | 1 to 100 nM | V (V: >1000) | > 100000 nM
O=C(NO)c1cc(F)c2c(c1)CCN1CCC[C@@H]21 [Compound 79] | 1 to 100 nM | IV (IV: >100-1000) | 1000 to 10000 nM
CC(=O)N1CCC[C@]2(C1)C[C@@H](N1CCc3cc(C(=O)NO)cc(F)c3C1)C2 (single isomer, unassigned) [Compound 349, 2-(6-acetyl-6-azaspiro[3.5]nonan-2-yl)-8-fluoro-3,4-dihydro-1H-isoquinoline-6-carbohydroxamic acid] | 1 to 100 nM | IV (IV: >100-1000) | 10000 to 100000 nM
CC[C@H]1Cc2c(F)cc(C(=O)NO)cc2CN1C1CC(C)(C)C1 (single isomer, unassigned) [Compound 593] | 100 to 1000 nM | IV (IV: >100-1000) | 10000 to 100000 nM
O=C(NO)c1cc(F)c2c(c1)CCN(CC1CCC3(CC1)CN(C1CC1)C3)C2 [Compound 466, 2-[(2-cyclopropyl-2-azaspiro[3.5]nonan-7-yl)methyl]-8-fluoro-3,4-dihydro-1H-isoquinoline-6-carbohydroxamic acid] | 1 to 100 nM | V (V: >1000) | 10000 to 100000 nM
O=C(NO)c1cc(F)c2c(c1)C[C@@H]1CCC3(CCCCC3)CN1C2 (single isomer, unassigned) [Compound 137] | 100 to 1000 nM |  | 10000 to 100000 nM
O=C(NO)c1cc(F)c2c(c1)CCN([C@@H]1CCCC3(CCC3)C1)C2 (single isomer, unassigned) [Compound 194] | 1 to 100 nM | V (V: >1000) | 10000 to 100000 nM
O=C(NO)c1cc(F)c2c(c1)CCN(C[C@@]13CN[C@@H](CO1)C3)C2 [Compound 472, 8-fluoro-2-[[(1R,4R)-2-oxa-5-azabicyclo[2.2.1]heptan-1-yl]methyl]-3,4-dihydro-1H-isoquinoline-6-carbohydroxamic acid] | 1 to 100 nM | IV (IV: >100-1000) | 1000 to 10000 nM
O=C(NO)c1cc(F)c2c(c1)CCN(C1CCC3(CC1)CN(Cc1ccccc1)C3)C2 [Compound 430, 2-(2-benzyl-2-azaspiro[3.5]nonan-7-yl)-8-fluoro-3,4-dihydro-1H-isoquinoline-6-carbohydroxamic acid] | 1 to 100 nM | IV (IV: >100-1000) | 1000 to 10000 nM
CC[C@@H](c1ccc(C(=O)NO)cc1F)N1CCC2(CCCCC2)C1 (single isomer, unassigned) [Compound 237] | 100 to 1000 nM | II (II: >1-10) | 1000 to 10000 nM
O=C(NO)c1ccc2c(c1)CCN1CCC[C@H]21 [Compound 148] | 1000 to 10000 nM | II (II: >1-10) | 1000 to 10000 nM
O=C(NO)c1cc(F)c2c(c1)CCN(C1CCC13CCCC3)C2 (stereo not shown) [Compound 314, 8-fluoro-2-spiro[3.4]octan-3-yl-3,4-dihydro-1H-isoquinoline-6-carbohydroxamic acid] | 1 to 100 nM | IV (IV: >100-1000) | 1000 to 10000 nM
CN1CC2CC(C1)C2CN1CCc2cc(C(=O)NO)cc(F)c2C1 (stereo not shown) [Compound 463, 8-fluoro-2-[(3-methyl-3-azabicyclo[3.1.1]heptan-6-yl)methyl]-3,4-dihydro-1H-isoquinoline-6-carbohydroxamic acid] | 1 to 100 nM | IV (IV: >100-1000) | 10000 to 100000 nM
C[C@@H]1CC[C@H]2c3c(F)cc(C(=O)NO)cc3CCN12 (single isomer, unassigned) [Compound 158] | 1 to 100 nM |  | 1000 to 10000 nM
CC1(C)C[C@@H]2Cc3c(F)cc(C(=O)NO)cc3CN2C1 [Compound 127] | 1 to 100 nM | IV (IV: >100-1000) | 1000 to 10000 nM
O=C(NO)c1cc(F)c2c(c1)CN1CCC[C@H]1C2 [Compound 123] | 100 to 1000 nM | III (III: >10-100) | 1000 to 10000 nM

SMILES | IC50 (Full length Human HDAC6) | Selectivity (6 v 8) (Full length Human HDAC6) | IC50 (Full length Human HDAC8)
O=C(NO)c1cc(F)c2c(c1)CCN1CCC[C@H]21 [Compound 80] | 100 to 1000 nM | III (III: >10-100) | 1000 to 10000 nM
O=C(NO)c1cc(F)c2c(c1)C[C@@H]1COCCN1C2 (single isomer, unassigned) [Compound 129] | 10000 to 100000 nM |  | > 100000 nM
O=C(NO)c1ccc2c(c1)CN1CCCC[C@@H]1C2 [Compound 143] | 100 to 1000 nM | III (III: >10-100) | 1000 to 10000 nM
C[C@H]1C[C@H]2c3c(F)cc(C(=O)NO)cc3CCN2C1 (single isomer, unassigned) [Compound 154] | 100 to 1000 nM |  | 1000 to 10000 nM
O=C(NO)c1cc(F)c2c(c1)CCN(C1CC3(CCN(C4CC4)CC3)C1)C2 [Compound 607, 2-(7-cyclopropyl-7-azaspiro[3.5]nonan-2-yl)-8-fluoro-3,4-dihydro-1H-isoquinoline-6-carbohydroxamic acid] | 1 to 100 nM | IV (IV: >100-1000) | 10000 to 100000 nM
O=C(NO)c1cc(F)c2c(c1)C[C@H]1CC3(CCCCC3)CN1C2 (single isomer, unassigned) [Compound 135] | 100 to 1000 nM |  | 1000 to 10000 nM
O=C(NO)c1cc(F)c2c(c1)CCN(C1CCC3(CCCC3)CC1)C2 [Compound 193, 8-fluoro-2-spiro[4.5]decan-8-yl-3,4-dihydro-1H-isoquinoline-6-carbohydroxamic acid] | 1 to 100 nM | V (V: >1000) | 10000 to 100000 nM
O=C(NO)c1cc(F)c2c(c1)C[C@@H]1CCCN1C2 (single isomer, unassigned) [Compound 119] | 100 to 1000 nM | III (III: >10-100) | 10000 to 100000 nM
C[C@@H]1C[C@@H]2c3c(F)cc(C(=O)NO)cc3CCN2C1 (single isomer, unassigned) [Compound 151] | 1 to 100 nM |  | 1000 to 10000 nM
O=C(NO)c1cc(F)c2c(c1)CCN(CC13CC(C1)N(C1CC1)C3)C2 [Compound 491, 2-[(2-cyclopropyl-2-azabicyclo[2.1.1]hexan-4-yl)methyl]-8-fluoro-3,4-dihydro-1H-isoquinoline-6-carbohydroxamic acid] | 1 to 100 nM | IV (IV: >100-1000) | 10000 to 100000 nM
O=C(NO)c1cc(F)c2c(c1)CCN([C@@H]1CCC3(CCC3)C1)C2 (single isomer, unassigned) [Compound 384] | 1 to 100 nM | V (V: >1000) | 10000 to 100000 nM
CC[C@H]1Cc2c(F)cc(C(=O)NO)cc2CN1C[C@@H]1CCCCO1 (single isomer, unassigned) [Compound 229] | 100 to 1000 nM | III (III: >10-100) | 1000 to 10000 nM
CN1CCC2(CCC(N3CCc4cc(C(=O)NO)cc(F)c4C3)C2)CC1 (stereo not shown) [Compound 417, 8-fluoro-N-hydroxy-2-(8-methyl-8-azaspiro[4.5]decan-2-yl)-1,2,3,4-tetrahydroisoquinoline-6-carboxamide] | 1 to 100 nM | IV (IV: >100-1000) | 10000 to 100000 nM
O=C(NO)c1cc(F)c2c(c1)CCN([C@H]1CCC3(CCCCC3)C1)C2 (single isomer, unassigned) [Compound 109] | 1 to 100 nM |  | 10000 to 100000 nM
CC[C@@H](c1ccccc1)N1CCc2cc(C(=O)NO)cc(F)c2C1 [Compound 31] | 1 to 100 nM |  | 1000 to 10000 nM
